Test results reported in PubChem BioAssay AID2060345 (Molecular Pharmacology Branch, DTP, NCI, 2025).
Several values for one entry are separate records, joined by “and”; a condition that tells them apart may be missing. Identical values can stand only once.

System: MALME-3M multicell spheroids, viability
Assay: Anticancer human tumor MALME-3M cell line growth inhibition [TAK];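 also: spheroids exposed to drugs for seven days before readout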;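 as to viability, T/C: 100% = DMSO vehicle control viability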
Conditions: for viability, T/C: stronger effect = lower value
Excerpt: Combinatorial screen of targeted agents with TAK-243 and ipatasertib in multi-cell type tumor spheroids
A high-throughput screen of multi-cell type tumor spheroids was designed to identify active combinations of targeted small molecules and TAK-243 or ipatasertib. Complex spheroids include a stromal component modeled by human endothelial cells (HUVEC) and fibroblasts modeled by human mesenchymal stem cells (MSCs). The concentration ranges selected for each drug and investigational agent were based upon clinically achievable concentrations if the clinical Cmax of the agent was known.
Compounds. The drugs and investigational agents: TAK-243 (785004), ipatasertib (767898), everolimus (733504), selumetinib (741078), bortezomib (756655), trametinib (758246), ixazomib (758254), vemurafenib (761431), dabrafenib (764134), sapanisertib (764658), alpelisib (765974), and copanlisib (816437), were obtained from the National Cancer Institute (NCI) Developmental Therapeutics Program Chemical Repository. The FDA-approved anticancer drug set is available from the NCI Developmental Therapeutics Program. […] The stock solutions were prepared in dimethyl sulfoxide (DMSO, Sigma-Aldrich, St. Louis, MO, cat. D2650) at 800-fold the tested concentration and stored at -70 degrees C prior to their use. All drugs and investigational agents were tested over a range starting from a high concentration at or near the clinical Cmax and decreasing in half-log increments. If the clinical Cmax for an agent had not been determined, the highest concentration tested was 10 microM.
NCI60 Cell Culture. NCI60 cell lines were obtained from the NCI Developmental Therapeutics Program Tumor Repository. For each lot of cells, the Repository performed Applied Biosystems AmpFLSTR Identifiler testing with PCR amplification to confirm consistency with the published Identifier STR profile for each cell line. Cells were kept in continuous culture for no more than 20 passages. The optimal seeding densities for each of the cell lines at each time point assessed were determined prior to performing the concentration response studies. Briefly, the NCI60 human tumor lines were grown as monolayers in RPMI 1640 medium supplemented with 10% FBS and 2 mmol/L L-glutamine.
An additional 2 lines were from the NCI60 cell line panel including melanomas, MALME-3M and SK-MEL-2. Pooled donor human umbilical vein endothelial cells (HUVEC, Lonza, cat. CC-2519) and human mesenchymal stem cells (hMSC, Lonza, cat. PT-2501) were purchased from Lonza (Walkersville, MD).
PDMR cell lines were grown in complete medium (DC medium): Dulbecco's modified Eagle's medium (DMEM)/F12 supplemented with 5% fetal bovine serum (FBS), 2 mM L-glutamine, 100 U/mL penicillin and 100 µg/ml streptomycin, 0.4 µg/ml hydrocortisone, 10 ng/ml epidermal growth factor (EGF) recombinant human protein, 24 µg/mL adenine, and 0.1 mg/mL primocin. During culture from frozen stock vials, PDMR cells were cultured in the same medium containing 10 µM Y-27632 (see Table 3). The PDCs were cultured in complete DMEM/F12 media without 10 microM Y-27632 dihydrochloride for at least two passages prior to the screen. The pooled donor HUVEC and hMSC were cultured in endothelial cell growth medium 2 (PromoCell, Heidelberg, Germany, cat. C-22011) and mesenchymal stem cell growth medium 2 (PromoCell, cat. C-28009), respectively. For all experiments, HUVEC and hMSC were used at passages </=5.
For the pre-screen, cell seeding densities were determined from a titration spanning the range from 5,000 to 313 cells per well. The mct-spheroids including 60% malignant cells, 25% HUVEC and 15% MSC dispensed as a mixture into U-bottom Ultra-Low Attachment 384-well plates (Corning, NY)
High-throughput Drug Combination Screening.
Prior to their inoculation into 384-well plates, malignant cells, HUVEC, and hMSC were removed from T flasks using TrypLE express (Thermo Fisher Scientific, cat. 12605036) and harvested by centrifugation for 5 min at 233 x g. […]

CC(=O)Nc1cccc(-n2c(=O)n(C3CC3)c(=O)c3c(Nc4ccc(I)cc4F)n(C)c(=O)c(C)c32)c1
viability, T/C (compound 94.9 pM): 92.9% and 86.3% | viability, T/C (compound 0.0003 µM): 48.6% and 49.9% | viability, T/C (compound 0.000949 µM): 20.2% and 18.5% | viability, T/C (compound 0.003 µM): 15.9% and 15.3% | viability, T/C (compound 0.00949 µM): 9.62% and 9.1% | viability, T/C (compound 0.03 µM): 5.56% and 5.65% | IC50 (curve of compound): 0.000284 µM and 0.000293 µM

CC(C)(C)c1nc(-c2cccc(NS(=O)(=O)c3c(F)cccc3F)c2F)c(-c2ccnc(N)n2)s1
viability, T/C (compound 0.0316 µM): 21.4% and 24.8% | viability, T/C (compound 0.1 µM): 22.8% and 21.5% | viability, T/C (compound 0.316 µM): 20.7% and 21.4% | viability, T/C (compound 1 µM): 22.4% and 21.4% | viability, T/C (compound 3.16 µM): 21.2% and 23.6% | viability, T/C (compound 10 µM): 29.8% and 27.6% | IC50 (curve of compound): < 0.0316 µM

CC(C)CC(NC(=O)C(Cc1ccccc1)NC(=O)c1cnccn1)B(O)O (stereo not drawn)
viability, T/C (compound 31.6 pM): 105% and 95.5% | viability, T/C (compound 0.0001 µM): 97.5% and 87.7% | viability, T/C (compound 0.000316 µM): 98.5% and 86.3% | viability, T/C (compound 0.001 µM): 97.5% and 70.5% | viability, T/C (compound 0.00316 µM): 25.8% and 18.3% | viability, T/C (compound 0.01 µM): 0.68% and 0.19% | IC50 (curve of compound): 0.00214 µM and 0.00156 µM

CC(C)CC(NC(=O)CNC(=O)c1cc(Cl)ccc1Cl)B1OC(=O)CC(CC(=O)O)(C(=O)O)O1 (stereo not drawn)
viability, T/C (compound 0.000316 µM): 89.2% and 116% | viability, T/C (compound 0.001 µM): 86.8% and 91.6% | viability, T/C (compound 0.00316 µM): 88.2% and 98.5% | viability, T/C (compound 0.01 µM): 88.2% and 96% | viability, T/C (compound 0.0316 µM): 7.17% and 7.01% | viability, T/C (compound 0.1 µM): 0.41% and 1.22% | IC50 (curve of compound): 0.0172 µM and 0.0181 µM

CC(C)NCC(C(=O)N1CCN(c2ncnc3c2C(C)CC3O)CC1)c1ccc(Cl)cc1 (stereo not drawn)
viability, T/C (compound 9.49 µM): 76% [middle of 10 runs] | viability, T/C (compound 30 µM): 50.4% [middle of 10 runs] | IC50 (compound alone, run of 02/20/2020): > 30 µM and 23.2 µM and 14.8 µM

CC(C)n1nc(-c2ccc3oc(N)nc3c2)c2c(N)ncnc21
viability, T/C (compound 0.000316 µM): 78.4% and 94.5% | viability, T/C (compound 0.001 µM): 64.4% and 88.7% | viability, T/C (compound 0.00316 µM): 63% and 77.5% | viability, T/C (compound 0.01 µM): 47.5% and 70.1% | viability, T/C (compound 0.0316 µM): 28.3% and 33% | viability, T/C (compound 0.1 µM): 10.5% and 13.6% | IC50 (curve of compound): 0.00744 µM and 0.0181 µM

CCCS(=O)(=O)Nc1ccc(F)c(C(=O)c2c[nH]c3ncc(-c4ccc(Cl)cc4)cc23)c1F
viability, T/C (compound 0.316 µM): 26.3% and 29.5% | viability, T/C (compound 1 µM): 22.6% and 22.5% | viability, T/C (compound 3.16 µM): 19.4% and 20.7% | viability, T/C (compound 10 µM): 15.4% and 17% | viability, T/C (compound 31.6 µM): 19.3% and 3.37% | viability, T/C (compound 100 µM): 15.6% and 16.2% | IC50 (curve of compound): < 0.316 µM

COC1CC2CCC(C)C(O)(O2)C(=O)C(=O)N2CCCCC2C(=O)OC(C(C)CC2CCC(OCCO)C(OC)C2)CC(=O)C(C)C=C(C)C(O)C(OC)C(=O)C(C)CC(C)C=CC=CC=C1C (stereo not drawn)
viability, T/C (compound 0.000316 µM): 83% and 79.4% | viability, T/C (compound 0.001 µM): 66.2% and 59.1% | viability, T/C (compound 0.00316 µM): 58.1% and 59.4% | viability, T/C (compound 0.01 µM): 52.3% and 58.6% | viability, T/C (compound 0.0316 µM): 50.5% and 50.7% | viability, T/C (compound 0.1 µM): 44.2% and 44% | IC50 (curve of compound): 0.0186 µM and 0.0281 µM

COc1c(OCCCN2CCOCC2)ccc2c3n(c(=NC(=O)c4cnc(N)nc4)nc12)CCN3
viability, T/C (compound 0.00316 µM): 92.7% and 95.3% | viability, T/C (compound 0.01 µM): 71.3% and 85.2% | viability, T/C (compound 0.0316 µM): 70.3% and 76.1% | viability, T/C (compound 0.1 µM): 51.1% and 48.3% | viability, T/C (compound 0.316 µM): 19% and 21.5% | viability, T/C (compound 1 µM): 8.97% and 8.52% | IC50 (curve of compound): 0.084 µM and 0.0929 µM

Cc1nc(NC(=O)N2CCCC2C(N)=O)sc1-c1ccnc(C(C)(C)C(F)(F)F)c1 (stereo not drawn)
viability, T/C (compound 0.0316 µM): 100% and 86.7% | viability, T/C (compound 0.1 µM): 98.8% and 96.3% | viability, T/C (compound 0.316 µM): 83.6% and 72.6% | viability, T/C (compound 1 µM): 70.6% and 81.7% | viability, T/C (compound 3.16 µM): 61.6% and 68.2% | viability, T/C (compound 10 µM): 50% and 41.9% | IC50 (curve of compound): > 10 µM and 7.08 µM

Cn1cnc2c(F)c(Nc3ccc(Br)cc3Cl)c(C(=O)NOCCO)cc21
viability, T/C (compound 0.00949 µM): 82.6% and 84.7% | viability, T/C (compound 0.03 µM): 49% and 52.6% | viability, T/C (compound 0.0949 µM): 22% and 21.7% | viability, T/C (compound 0.3 µM): 15.4% and 16.9% | viability, T/C (compound 0.949 µM): 12% | viability, T/C (compound 3 µM): 5.64% and 5.37% | IC50 (curve of compound): 0.0282 µM and 0.032 µM

COC1CC2CCC(C)C(O)(O2)C(=O)C(=O)N2CCCCC2C(=O)OC(C(C)CC2CCC(OCCO)C(OC)C2)CC(=O)C(C)C=C(C)C(O)C(OC)C(=O)C(C)CC(C)C=CC=CC=C1C (stereo not drawn) + CC(C)NCC(C(=O)N1CCN(c2ncnc3c2C(C)CC3O)CC1)c1ccc(Cl)cc1
IC50 (curve of first compound, second compound 0.3 µM): > 0.1 µM | IC50 (curve of first compound, second compound 0.949 µM): 0.00897 µM | IC50 (curve of first compound, second compound 3 µM): 0.00151 µM | IC50 (curve of first compound, second compound 9.49 µM): 0.00042 µM | IC50 (curve of first compound, second compound 30 µM): < 0.000316 µM | viability, T/C (second compound 0.3 µM, first compound 0.000316 µM): 87.7% | viability, T/C (second compound 0.3 µM, first compound 0.001 µM): 69.2% | viability, T/C (second compound 0.3 µM, first compound 0.00316 µM): 64.3% | viability, T/C (second compound 0.3 µM, first compound 0.01 µM): 55.7% | viability, T/C (second compound 0.3 µM, first compound 0.0316 µM): 53.8% | viability, T/C (second compound 0.3 µM, first compound 0.1 µM): 51.3% | viability, T/C (second compound 0.949 µM, first compound 0.000316 µM): 89.9% | viability, T/C (second compound 0.949 µM, first compound 0.001 µM): 71.5% | viability, T/C (second compound 0.949 µM, first compound 0.00316 µM): 49.9% | viability, T/C (second compound 0.949 µM, first compound 0.01 µM): 51.8% | viability, T/C (second compound 0.949 µM, first compound 0.0316 µM): 50% | viability, T/C (second compound 0.949 µM, first compound 0.1 µM): 42.4% | viability, T/C (second compound 3 µM, first compound 0.000316 µM): 70.5% | viability, T/C (second compound 3 µM, first compound 0.001 µM): 55.4% | viability, T/C (second compound 3 µM, first compound 0.00316 µM): 40.7% | viability, T/C (second compound 3 µM, first compound 0.01 µM): 32.1% | viability, T/C (second compound 3 µM, first compound 0.0316 µM): 38% | viability, T/C (second compound 3 µM, first compound 0.1 µM): 29.5% | viability, T/C (second compound 9.49 µM, first compound 0.000316 µM): 54.4% | viability, T/C (second compound 9.49 µM, first compound 0.001 µM): 37.1% | viability, T/C (second compound 9.49 µM, first compound 0.00316 µM): 26% | viability, T/C (second compound 9.49 µM, first compound 0.01 µM): 26.4% | viability, T/C (second compound 9.49 µM, first compound 0.0316 µM): 23.6% | viability, T/C (second compound 9.49 µM, first compound 0.1 µM): 21.8% | viability, T/C (second compound 30 µM, first compound 0.000316 µM): 36.2% | viability, T/C (second compound 30 µM, first compound 0.001 µM): 32.8% | viability, T/C (second compound 30 µM, first compound 0.00316 µM): 20.7% | viability, T/C (second compound 30 µM, first compound 0.01 µM): 22.1% | viability, T/C (second compound 30 µM, first compound 0.0316 µM): 19.9% | viability, T/C (second compound 30 µM, first compound 0.1 µM): 19.1%
